Reference: patent US20180153995A1, “USE OF ANTIMICROBIAL POLYMERS FOR RE-SENSITIZATION OF MICROORGANISMS UPON EMERGENCE OF RESISTANCE TO ANTI-MICROBIAL AGENTS” (Technion Research & Development Foundation Limited, priority 2008, published 2018)
Read-outs that look alike come from different tables or passages of the source.

Tests used:
S. maltophila 748 = experiment: Antibiotic MIC by microdilution with or without sub-MIC polymer; type: cell-based, Stenotrophomonas maltophila
[1] = test system: E. coli K-12 efflux knockout mutant; type: cell-based, Escherichia coli; conditions: E. coli AG100A (efflux−)
Method in brief: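 Broth microdilution, inocula 10^5 bacteria/ml, 24 h at 37 °C. Growth read as OD620 against calibration standards.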

E. coli 16329 = type: cell-based, Escherichia coli
Method in brief: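 Bacterial suspensions (100 μl) were added to 100 μl of culture medium carrying 2-fold serially diluted antibiotic together with a fraction of the polymer's MIC, or to plain medium as control. Plates were incubated 24 hours at 37° C, and proliferation was read at 620 nm against calibration standards. Starting inoculum was 10^5 bacteria per ml.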

S. aureus 17314 = experiment: Antibiotic MIC by microdilution with or without sub-MIC polymer; type: cell-based, Staphylococcus aureus
S. aureus 43300 = experiment: as above; type: cell-based, Staphylococcus aureus
MRSA 15903 = experiment: microbe, parasite or virus in culture; type: cell-based, Staphylococcus aureus
Method in brief: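 Two-agent combinations tested against MRSA 15903; FIC index = A/MICA + B/MICB, using MICs in combination versus alone. Below 0.5 read as clear re-sensitizing, 0.5–4 marginal or null, above 4 antagonism.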

E. coli 16327 = experiment: microbe, parasite or virus in culture
[2] = test system: E. coli K-12 resistant wild type; type: cell-based, Escherichia coli; conditions: E. coli AG100 (w.t.)
E. coli 14182 = experiment: Antibiotic MIC by microdilution with or without sub-MIC polymer; type: cell-based, Escherichia coli
S. aureus 15819 = experiment: as above; type: cell-based, Staphylococcus aureus; conditions: S. aureus 15819
Protocol: MICs were determined by microdilution susceptibility testing in 96-well plates (by Nunc) using inocula of 10^5 bacteria per ml. Cell populations were evaluated by optical density measurements at 620 nm and were calibrated against a set of standards. Hundred (100) μl of a bacterial suspension were added to 100 μl of culture medium (control) or to 100 μl of culture medium containing various polymer concentrations in 2-fold serial dilutions. Inhibition of proliferation was determined by optical density measurements at 620 nm after an incubation period of 24 hours at 37° C.
MICs were determined by microdilution susceptibility testing in 96-well plates (Nunc) using inocula of 10^5 bacteria per ml. One hundred (100) μl of a bacterial suspension were added to 100 μl of culture medium (control) or to 100 μl of culture medium containing various antibiotic and C12(5-ene)KKNC12KNH2 (SEQ ID NO: 2) concentrations in 2-fold serial dilutions. Inhibition of proliferation was determined by optical density measurements at 620 nm after an incubation period of 24 hours at 37° C.

[3] = +¼ MIC (1.6 μM) C12K(KNC12K)3NH2
[4] = +½ MIC (3.12 μM) C12K(KNC12K)3NH2
[5] = +⅓ MIC (2.1 μM) C12K(KNC12K)3NH2
[6] = polymer at ¼ of its MIC (Table 16)
[7] = polymer at ½ of its MIC (Table 16)
[8] = polymer at ⅓ of its MIC (Table 16)
[9] = the OAK at ¼ of its MIC (Table 17)
[10] = the OAK at ½ of its MIC (Table 17)
[11] = the OAK at ⅓ of its MIC (Table 17)
[12] = +½ MIC (3.12 μM) C12(5-ene)KKNC12KNH2

CC1(C)S[C@@H]2[C@H](NC(=O)Cc3ccccc3)C(=O)N2[C@H]1C(=O)O [Penicillin G, penicillin G]
8 µg/mL: Antibiotic MIC, None ([1]; antibiotic alone (Table 16)) | Antibiotic MIC, None ([1]; antibiotic alone (Table 17)) | Antibiotic MIC in presence of C12K(NC8K)7NH2 (SEQ ID NO: 4), +¼ MIC [1, 6] | Antibiotic MIC in presence of C12K(NC8K)7NH2 (SEQ ID NO: 4), +⅓ MIC [1, 8] | Antibiotic MIC (S. aureus 17314; S. aureus 17314, +¼ MIC (1.6 μM) C14(9-ene)KKNC12KNH2) | Antibiotic MIC (S. aureus 17314; S. aureus 17314, +⅓ MIC (2.1 μM) C14(9-ene)KKNC12KNH2) | Antibiotic MIC (S. aureus 17314; S. aureus 17314, no polymer (None), Table 9) | Antibiotic MIC (S. aureus 43300; no polymer (None), Table 11) | Antibiotic MIC (S. aureus 43300; no polymer (None), Table 12) | MIC (MRSA 15903; MRSA 15903, +¼ polymer MIC (1.6 μM) NC12(KNC12K)2NH2) | Antibiotic MIC in presence of C12K(NC8K)7NH2 (SEQ ID NO: 4), +½ MIC [2, 7] | Antibiotic MIC in presence of the OAK, +½ MIC [2, 10] | Antibiotic MIC (S. aureus 15819; +¼ MIC (1.6 μM) C12KKNC12KNH2) | Antibiotic MIC (S. aureus 15819; +⅓ MIC (2.1 μM) C12(5-ene)KKNC12KNH2)
4 to 16 µg/mL: MIC, ½ + MIC OAK (MRSA 15903; MRSA 15903, with C12K(KNC10K)3NH2 (SEQ ID NO: 10) at ½ of its MIC)
128 µg/mL: Antibiotic MIC (S. maltophila 748; [4]) | Antibiotic MIC (S. aureus 17314; S. aureus 17314, +¼ MIC (1.6 μM) C12K(KNC12K)2NH2) | Antibiotic MIC (S. aureus 17314; S. aureus 17314, +⅓ MIC (2.1 μM) C12K(KNC12K)2NH2) | Antibiotic MIC (S. aureus 17314; S. aureus 17314, no polymer (None), Table 11) | Antibiotic MIC (S. aureus 17314; S. aureus 17314, no polymer (None), Table 12)
16 µg/mL: Antibiotic MIC in presence of the OAK, +¼ MIC [2, 9] | Antibiotic MIC in presence of the OAK, +⅓ MIC [2, 11] | Antibiotic MIC (S. aureus 15819; no polymer (None), Table 8) | Antibiotic MIC (S. aureus 15819; no polymer (None), Table 11) | Antibiotic MIC (S. aureus 15819; no polymer (None), Table 13)
0.25 µg/mL: MIC (MRSA 15903; S. aureus CI-15903, +polymer (½ MIC) C12(5-ene)KKNC12KNH2)
0.03 µg/mL: Antibiotic MIC (S. aureus 43300; [12])
64 to 128 µg/mL: Antibiotic MIC (S. aureus 17314)
512 µg/mL: Antibiotic MIC (S. maltophila 748; [3]) | Antibiotic MIC (S. maltophila 748; no polymer (None), Table 13) | Antibiotic MIC (E. coli 16329; E. coli 16329, no polymer (None), Table 10) | MIC, ½ + MIC OAK (E. coli 16327; E. coli U16327, with C12K(KNC10K)3NH2 (SEQ ID NO: 10) at ½ of its MIC) | Antibiotic MIC in presence of C12K(NC8K)7NH2 (SEQ ID NO: 4), +½ MIC (E. coli 16327; E. coli U-16327, polymer at ½ of its MIC)
64 µg/mL: Antibiotic MIC (S. aureus 17314; S. aureus 17314, +½ MIC (3.12 μM) C12K(KNC12K)2NH2) | Antibiotic MIC (S. aureus 17314; S. aureus 17314, +½ MIC (3.12 μM) C12KKNC12KNH2) | MIC (MRSA 15903; MRSA 15903, antibiotic alone) | MIC, Alone (MRSA 15903; MRSA 15903, antibiotic alone (Table 22)) | MIC, ¼ + MIC OAK (MRSA 15903; MRSA 15903, with C12K(KNC10K)3NH2 (SEQ ID NO: 10) at ¼ of its MIC) | MIC, ⅓ + MIC OAK (MRSA 15903; MRSA 15903, with C12K(KNC10K)3NH2 (SEQ ID NO: 10) at ⅓ of its MIC) | MIC (MRSA 15903; S. aureus CI-15903, alone)
8 to 12 µg/mL: Antibiotic MIC (S. aureus 15819; +¼ MIC (1.6 μM) C12(5-ene)KKNC12KNH2)
4 µg/mL: Antibiotic MIC in presence of C12K(NC8K)7NH2 (SEQ ID NO: 4), +½ MIC [1, 7] | Antibiotic MIC in presence of the OAK, +½ MIC [1, 10] | Antibiotic MIC (S. aureus 43300; +¼ MIC (1.6 μM) C14(9-ene)KKNC12KNH2) | Antibiotic MIC (S. aureus 43300; +⅓ MIC (2.1 μM) C14(9-ene)KKNC12KNH2) | Antibiotic MIC (S. aureus 43300; no polymer (None), Table 8) | Antibiotic MIC (S. aureus 43300; no polymer (None), Table 9) | Antibiotic MIC (S. aureus 43300; no polymer (None), Table 10) | MIC (MRSA 15903; S. aureus CI-15903, +polymer (⅓ MIC) C12(5-ene)KKNC12KNH2) | Antibiotic MIC (S. aureus 15819; [3]) | Antibiotic MIC (S. aureus 15819; [12]) | Antibiotic MIC (S. aureus 15819; +⅓ MIC (2.1 μM) C12KKNC12KNH2)
2 µg/mL: Antibiotic MIC (S. aureus 17314; S. aureus 17314, +¼ MIC (1.6 μM) C16(9-ene)KKNC12KNH2) | Antibiotic MIC (S. aureus 43300; +½ MIC (3.12 μM) C14(9-ene)KKNC12KNH2) | MIC (MRSA 15903; MRSA 15903, +⅓ polymer MIC (2.1 μM) NC12(KNC12K)2NH2) | Antibiotic MIC (S. aureus 15819; +½ MIC (3.12 μM) C12KKNC12KNH2) | Antibiotic MIC (S. aureus 15819; [5])
8 to 16 µg/mL: Antibiotic MIC (S. aureus 17314; S. aureus 17314, no polymer (None), Table 10) | Antibiotic MIC in presence of C12K(NC8K)7NH2 (SEQ ID NO: 4), +⅓ MIC [2, 8]
256 to 512 µg/mL: Antibiotic MIC (S. maltophila 748; [5])
256 µg/mL: Antibiotic MIC (E. coli 16329) | Antibiotic MIC (E. coli 16329; E. coli U-16329, +¼ MIC C12K(NC8K)5NH2) | Antibiotic MIC (E. coli 16329; E. coli U-16329, +½ MIC C12K(NC8K)5NH2) | Antibiotic MIC (E. coli 16329; E. coli U-16329, +⅓ MIC C12K(NC8K)5NH2) | Antibiotic MIC, None (E. coli 16329; E. coli U-16329, antibiotic alone (Table 15)) | Antibiotic MIC (E. coli 16329; E. coli U-16329, no polymer (None), Table 14) | Antibiotic MIC in presence of C12K(NC8K)7NH2 (SEQ ID NO: 4), +¼ MIC (E. coli 16329; E. coli U-16329, polymer at ¼ of its MIC)
128 to 256 µg/mL: Antibiotic MIC in presence of C12K(NC8K)7NH2 (SEQ ID NO: 4), +½ MIC (E. coli 16329; E. coli U-16329, polymer at ½ of its MIC) | Antibiotic MIC in presence of C12K(NC8K)7NH2 (SEQ ID NO: 4), +⅓ MIC (E. coli 16329; E. coli U-16329, polymer at ⅓ of its MIC)
1 µg/mL: Antibiotic MIC (S. aureus 17314; S. aureus 17314, +⅓ MIC (2.1 μM) C16(9-ene)KKNC12KNH2) | MIC (MRSA 15903; MRSA 15903, +½ polymer MIC (3.1 μM) NC12(KNC12K)2NH2)
4 to 8 µg/mL: Antibiotic MIC in presence of the OAK, +¼ MIC [1, 9] | Antibiotic MIC in presence of the OAK, +⅓ MIC [1, 11]
32 µg/mL: MIC (MRSA 15903; S. aureus CI-15903, +polymer (¼ MIC) C12(5-ene)KKNC12KNH2) | Antibiotic MIC, None ([2]; antibiotic alone (Table 16)) | Antibiotic MIC, None ([2]; antibiotic alone (Table 17))
16 to 32 µg/mL: Antibiotic MIC in presence of C12K(NC8K)7NH2 (SEQ ID NO: 4), +¼ MIC [2, 6]
>512 µg/mL: Antibiotic MIC (E. coli 16327) | Antibiotic MIC (E. coli 16327; E. coli 16327, +¼ MIC (1.6 μM) C12K(KNC12K)2NH2) | Antibiotic MIC (E. coli 16327; E. coli 16327, +½ MIC (3.12 μM) C12K(KNC12K)2NH2) | Antibiotic MIC (E. coli 16327; E. coli 16327, +⅓ MIC (2.1 μM) C12K(KNC12K)2NH2) | Antibiotic MIC (E. coli 16327; E. coli 16327, no polymer (None), Table 9) | Antibiotic MIC (E. coli 16327; E. coli 16327, no polymer (None), Table 10) | Antibiotic MIC (E. coli 16327; E. coli 16327, no polymer (None), Table 12) | MIC, Alone (E. coli 16327; E. coli U16327, antibiotic alone (Table 22)) | MIC, ¼ + MIC OAK (E. coli 16327; E. coli U16327, with C12K(KNC10K)3NH2 (SEQ ID NO: 10) at ¼ of its MIC) | MIC, ⅓ + MIC OAK (E. coli 16327; E. coli U16327, with C12K(KNC10K)3NH2 (SEQ ID NO: 10) at ⅓ of its MIC) | Antibiotic MIC, None (E. coli 16327; E. coli U-16327, antibiotic alone (Table 15)) | Antibiotic MIC in presence of C12K(NC8K)7NH2 (SEQ ID NO: 4), +¼ MIC (E. coli 16327; E. coli U-16327, polymer at ¼ of its MIC) | Antibiotic MIC in presence of C12K(NC8K)7NH2 (SEQ ID NO: 4), +⅓ MIC (E. coli 16327; E. coli U-16327, polymer at ⅓ of its MIC) | Antibiotic MIC (E. coli 14182; +½ MIC C12K(NC8K)5NH2) | Antibiotic MIC, None (E. coli 14182; antibiotic alone (Table 15)) | Antibiotic MIC (E. coli 14182; no polymer (None), Table 14) | Antibiotic MIC in presence of C12K(NC8K)7NH2 (SEQ ID NO: 4), +¼ MIC (E. coli 14182; polymer at ¼ of its MIC) | Antibiotic MIC in presence of C12K(NC8K)7NH2 (SEQ ID NO: 4), +½ MIC (E. coli 14182; polymer at ½ of its MIC) | Antibiotic MIC in presence of C12K(NC8K)7NH2 (SEQ ID NO: 4), +⅓ MIC (E. coli 14182; polymer at ⅓ of its MIC)
6 µg/mL: Antibiotic MIC (S. aureus 17314; S. aureus 17314, +½ MIC (3.12 μM) C14(9-ene)KKNC12KNH2)
0.5 µg/mL: Antibiotic MIC (S. aureus 17314; S. aureus 17314, +½ MIC (3.12 μM) C16(9-ene)KKNC12KNH2) | Antibiotic MIC (S. aureus 15819; [4])
